Series [1] deals with rat. The series is described as follows: animal or person. The following applies: read-out: algolyt. test (rat) 100% activity.
Series [2] has as its system rat. The series is described as follows: analgetic effect, hot plate (rat). Format: in vivo.
In series [3] the test system is rat. The series is described as follows: analgetic effect, tail flick (rat). The format is in vivo.
The test system of series [4] is rabbits. The series is described as follows: effects on respiration on conscious rabbits (III.5, Marey-drum). The procedure: Investigation was carried out on conscious rabbits of both sexes and of 3-4 kg weight by way of a Marey-drum. Frequency and amplitude of respiration were quantitatively evaluated.
In series [5] the test system is rats. The series is described as follows: sedative (narcosis potentiating) effect, Inactine base narcotic, rats. Format: in vivo. Here is the method:
Inactine (35 mg/kg) was used as a base narcotic.
*ED500 % = dose increasing narcosis to five times the control.

Series [6] concerns mice. The series is described as follows: analgetic effect, writhing test (mice). Format: in vivo.
The target of series [7] is (^3 H)naloxone binding sites. The series is described as follows: wash-resistant binding of (3H)naloxone, rat brain membranes. The following applies: preincubated with (3H)naloxone 1 nM and test compound; remaining specific binding after several washings; average of 2-4 data; compound.HCl; read-out: Ki (nM), affinity constants. The procedure:
(§1) Membrane preparation: A crude membrane fraction from rat brain (PVG/C strain) was prepared [Mol. Pharm.11 (1975) 340-351 and the protein content was defined [Anal. Biochem. 72(1976) 248-254).
(§2) The membrane suspension (200-400 μg protein) was incubated with the specific radioligand for 1 hour on ice. Incubations were terminated by rapid filtration under vacuo followed by washing with ice cold tris HCl buffer (50 mM, pH 7,4). Radioactivity was measured in a toluene based scintillation mixture on a LKB Minibeta Liquid Scintillation Spectrophotometer. Nonspecific binding was defined in the presence of 10 μM unlabeled naloxone. All assays were performed in triplicate and repeated several times. Ki values were determined from equilibrium experiments and calculated with the Tshang-Prusov equation. The data were evaluated using the Ligand program [Anal. Biol. Chem. 107 (1980) 220-239](Data shown on Table III/1).
After preincubation a thorough washing was performed. [Life Sci. 32 (1983) 2777-2784]. Control values are represented by the specific binding of (3H)naloxone to membranes preincubated with a buffer and treated in the same way. Heterologous displacement experiments were used to evaluate the affinity of the investigated compounds for (^3 H)naloxone binding sites.

The target in series [8] is (^3 H)naloxone binding sites. The series is described as follows: competition binding assay with (3H)naloxone on rat brain membranes. The following applies: membranes incubated with (3H)naloxone 1 nM and increasing ligand concentrations; read-out: Affinity constants (Ki nM) in competition assays. The procedure:
as §1, §2

For series [9], the system named is rabbits. The series is described as follows: effect on respiration on conscious rabbits (III.6, type A/B/C tests). The format is in vivo. The arrangement: resp. change ampl.: unit not given here. Here is the method:
The method as described above in Example III.5 was used on conscious rabbits of 2,5-3 kg weight. Registration was continued for 3-4 hours. The samples were injected under the skin of the neck and the respiration parameters were registered at intervals of 10 minutes.

The mark [10] stands for this setting: Rattus norvegicus; read-out: hot plate (rat) ED50.
[11] abbreviates: Rattus norvegicus; read-out: tail flick (rat) ED50.
[12] abbreviates: s.c. on rats, Inactine 35 mg/kg, dose as base.
Setting [13] is: Mus musculus; read-out: writhing test (mice) ED50.
The mark [14] stands for this setting: type A: DP 0.01 mg/kg s.c., 10'.
[15] abbreviates: type A: DP 0.01 mg/kg s.c., 20'.
[16] abbreviates: type A: DP 0.025 mg/kg s.c., 10'.
Where [17] appears, read: type A: DP 0.025 mg/kg s.c., 20'.
Setting [18] is: type A: DP 0.05 mg/kg s.c., 10'.
[19] abbreviates: type C: DP 0.25 mg/kg together with morphine 5 mg/kg s.c., 10'.
The mark [20] stands for this setting: type C: DP 0.25 mg/kg together with morphine 5 mg/kg s.c., 20'.
[21] abbreviates: type C: DP 0.25 mg/kg together with morphine 5 mg/kg s.c., 30'.
The mark [22] stands for this setting: type C: DP 0.25 mg/kg together with morphine 5 mg/kg s.c., 50'.
The mark [23] stands for this setting: OX 0.5 mg/kg s.c. + naloxone 0.25 mg/kg, 10 min.
Setting [24] is: OX 0.5 mg/kg s.c., 10 min (line before naloxone).
[25] abbreviates: type A: OX 0.1 mg/kg s.c. +5 mg/kg morphine, 30 min.
Where [26] appears, read: type A: OX 0.1 mg/kg s.c. +5 mg/kg morphine, 40 min.
Where [27] appears, read: type A: OX 0.1 mg/kg s.c., 10 min.

Structures can show the parent of a compound that is named as a salt. Where two headings read alike, the source gives them in different places.

For the compound `COc1ccc2c3c1O[C@H]1C(=NNC(N)=S)CC[C@H]4[C@@H](C2)N(C)CC[C@]314` [Dihydrocodeinone thio-semicarbazone.HCl, Dihydrocodeinone thio-semicarbazone], in [1], the ED100 is 5 mg/kg. The ED50 in series [2] (setting [10]) turned out to be 1.7 mg/kg; in [3] (setting [11]), 0.6 mg/kg.
In the case of `COc1ccc2c3c1O[C@H]1C(=O)CC[C@H]4[C@@H](C2)N(C)CC[C@]314` [Dihydrocodeinone, reference compound], the respiration effect result in [4] (10-5500 μg/kg i.v., s.c.) is on record as “depression”. In addition, the respiration frequency/min. result in series [4] (10-5500 μg/kg i.v., s.c.) is “.dwnarw”. Also, the respiration volume result in series [4] (10-5500 μg/kg i.v., s.c.) was “.dwnarw”. Further, in series [4] (rabbit, in vivo), the “influence on the respiratory depression effect of morphine (in words)” value is given as “unambiguously potentiate the respiratory depression effect of morphine”. The “respiratory depression by the compound alone (in words)” value in series [4] (rabbit, in vivo, sc) is recorded as “cause respiratory depression”. Further, in series [1], the ED100 was determined as 4.9 mg/kg. Further, the “ED500 % (dose increasing narcosis to five times the control)” value in series [5] (setting [12]) was 1,9 mg/kg. The ED50 in series [6] (setting [13]) was determined as 0.9 mg/kg; in [2] (setting [10]) it was 2.2 mg/kg; in series [3] (setting [11]) it was 0.98 mg/kg.
As to `COc1ccc2c3c1O[C@H]1C(=NO)CC[C@H]4[C@@H](C2)N(C)CC[C@]314` [Dihydrocodeinone-oxime, DIHYDROCODEINON-OXIME], the values for the Ki in series [7] and in [8] were 53 nM and 52 nM, respectively. Moreover, the ED100 in series [1] stood at 25 mg/kg. Besides, the values for the ED50 in [6] (setting [13]), in series [2] (setting [10]) and in series [3] (setting [11]) were 0.38 mg/kg, 4.2 mg/kg and 3.7 mg/kg, respectively.
For the compound `COc1ccc2c3c1O[C@H]1C(=NNc4ccccc4)CC[C@H]4[C@@H](C2)N(C)CC[C@]314` [Dihydrocodeinone-phenylhydrazone], the Ki in series [7] and in [8] was 323 nM in each case. Besides, in [1], the ED100 stood at 10.1 mg/kg. Also, the resp. change ampl. in series [9] (setting [14]), in series [9] (setting [15]), in series [9] (setting [16]), in series [9] (setting [17]), in series [9] (setting [18]) and in series [9] (setting [19]) was 0 throughout. Further, the resp. change ampl. in series [9] (setting [20]), in series [9] (setting [21]) and in [9] (setting [22]) was 0 each time. Further, the resp. change fr/min result in series [9] (setting [14]) is “+85”; in series [9] (setting [15]), “+96”; in [9] (setting [16]) it was “+114”; in series [9] (setting [17]) it was “+114”; in series [9] (setting [18]) it was “+132”; in [9] (setting [19]), “+39”. Moreover, the resp. change fr/min entry in [9] (setting [20]) is “+19”; in series [9] (setting [21]) it was -3; in [9] (setting [22]), -4. The “ED500 % (dose increasing narcosis to five times the control)” value in series [5] (setting [12]) was 3,5 mg/kg. In addition, the median effective dose (ED50) in series [2] (setting [10]) was 2.4 mg/kg; in series [3] (setting [11]) it was 2.3 mg/kg.
As to `COc1ccc2c3c1O[C@H]1C(=NNC(N)=O)CC[C@H]4[C@@H](C2)N(C)CC[C@]314` [Dihydrocodeinone-semicarbazone.HCl, dihydrocodeinone-semicarbazone], the ED100 in series [1] was determined as 10 mg/kg. In addition, the “ED500 % (dose increasing narcosis to five times the control)” value in series [5] (setting [12]) is on record as 1,0 mg/kg. In addition, the ED50 in [2] (setting [10]) was determined as 0.38 mg/kg; in [3] (setting [11]), 0.35 mg/kg. Further, the “hot plate (rat) ED50” value in [2] (rat) is on record as 0,38 mg/kg.
With `COc1ccc2c3c1O[C@H]1C(=NO)CC[C@@]4(O)[C@@H](C2)N(C)CC[C@]314` [Oxycodone-oxime, 14-HYDROXY-DIHYDROCODEINONE-OXIME], the Ki in series [7] and in [8] was 32 nM each time. The ED100 in series [1] was determined as 10 mg/kg. For the same compound, the resp. change ampl. entry in series [9] (OX 0.005 mg/kg s.c., 30 min) was “+30”; in series [9] (OX 0.025 mg/kg s.c., 30 min), 0; in series [9] (OX 0.1 mg/kg s.c., 30 min), “+40”; in series [9] (setting [23]), “+50”; in series [9] (setting [24]) it was -50; in series [9] (setting [25]) it was 0. In addition, the figures for the resp. change ampl. in series [9] (setting [26]) and in [9] (setting [27]) were -40 and “+20”, respectively. Moreover, the resp. change fr/min entry is recorded as “+30” in series [9] (OX 0.005 mg/kg s.c., 30 min); “+28” in [9] (OX 0.025 mg/kg s.c., 30 min); “+47” in series [9] (OX 0.1 mg/kg s.c., 30 min); “+50” in series [9] (setting [23]); -50 in [9] (setting [24]); “+71” in series [9] (setting [25]). Also, the resp. change fr/min in [9] (setting [26]) was -29; in [9] (setting [27]), “+57”. Further, the “respiration number (in words)” value in series [9] (small doses) was “considerably increase the respiration number”. Moreover, the “ED500 % (dose increasing narcosis to five times the control)” value in series [5] (rat, in vivo) was 0,5 mg/kg. In series [5] (rat, in vivo), the “potentiation of Inactine narcosis (in words)” value is reported as “most effectively prolongated”. The ED50 in [6] (Mus musculus, read-out: writhing test (mice) ED50) is 0.11 mg/kg; in [2] (Rattus norvegicus, read-out: hot plate (rat) ED50), 1.8 mg/kg; in [3] (Rattus norvegicus, read-out: tail flick (rat) ED50), 1 mg/kg.
With `COc1ccc2c3c1O[C@H]1C(=NNC(N)=S)CC[C@@]4(O)[C@@H](C2)N(C)CC[C@]314` [Oxycodone-thiosemicarbazone.HCl, Oxycodone-thiosemicarbazone], in series [1], the ED100 amounted to 100 mg/kg. Further, the figures for the median effective dose (ED50) in series [2] (setting [10]) and in series [3] (setting [11]) were 8.5 mg/kg and 4.5 mg/kg, respectively.
Turning to `CN1CC[C@]23c4c5ccc(O)c4O[C@H]2C(=NN)CC[C@H]3[C@H]1C5` [dihydromorphinone hydrazone], the inhibitory constant (Ki) in [8] came to 6 nM.
The same measure, in the same setting: the same measure for `CN1CC[C@]23c4c5ccc(O)c4O[C@H]2C(=NO)CC[C@H]3[C@H]1C5` [dihydromorphinone oxime]: 2 nM; for `CN1CC[C@]23c4c5ccc(O)c4O[C@H]2C(=NNc2ccccc2)CC[C@H]3[C@H]1C5` [dihydromorphinone phenylhydrazone]: 5 nM.
On the same count and under the same terms, the figure for `CN1CC[C@]23c4c5ccc(O)c4O[C@H]2C(=NNC(N)=O)CC[C@H]3[C@H]1C5` [dihydromorphinone semicarbazone] is 3 nM; for `CN1CC[C@]23c4c5ccc(O)c4O[C@H]2C(=NN)CC[C@@]3(O)[C@H]1C5` [oxymorphone hydrazone] it is 2 nM; for `CN1CC[C@]23c4c5ccc(O)c4O[C@H]2C(=NO)CC[C@@]3(O)[C@H]1C5` [oxymorphone oxime] it is 2 nM.
The same measure, in the same setting: the same measure for `CN1CC[C@]23c4c5ccc(O)c4O[C@H]2C(=NNc2ccccc2)CC[C@@]3(O)[C@H]1C5` [oxymorphone phenylhydrazone]: 20 nM; for `CN1CC[C@]23c4c5ccc(O)c4O[C@H]2C(=NNC(N)=O)CC[C@@]3(O)[C@H]1C5` [oxymorphone semicarbazone]: 4 nM.

Source of the values: patent publication US5317022A, “Pharmaceutical composition and use” (priority 1991, dated 1994).
